Molecules are shown by their SMILES. Activity calls are given as the source filed them. No rule for the calls is given here.

We go through 66 compounds from PubChem BioAssay AID1421 (Emory University Molecular Libraries Screening Center, 2008).

Prostaglandin E2 receptor EP2 subtype (Homo sapiens), sequence (P43116 whole entry, looked up): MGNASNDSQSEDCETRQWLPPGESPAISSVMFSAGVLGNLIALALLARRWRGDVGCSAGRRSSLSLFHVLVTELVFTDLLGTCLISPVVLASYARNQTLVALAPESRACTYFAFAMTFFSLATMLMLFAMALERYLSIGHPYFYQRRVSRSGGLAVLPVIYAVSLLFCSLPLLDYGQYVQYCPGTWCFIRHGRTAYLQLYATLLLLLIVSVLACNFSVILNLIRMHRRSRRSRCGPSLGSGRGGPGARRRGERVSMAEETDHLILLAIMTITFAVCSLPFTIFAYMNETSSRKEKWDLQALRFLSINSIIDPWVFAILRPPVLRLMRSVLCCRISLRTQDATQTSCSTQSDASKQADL

The first experiment concerns the target Prostaglandin E2 receptor EP2 subtype (Homo sapiens) (UniProt P43116). Kind of experiment: compounds shifting PGE2 potency at EP2 – cell-based, human EP2, PGE2 EC50 shift, dose response (AID 1421). The conditions noted are these: EP2-expressing cells, PGE2 EC50 shift by compound.
Consider `CC1=CC(C)(C)N(C(=O)c2ccccc2)c2ccccc21`, for which the result was active.

For the compound `Cc1noc(C)c1CSc1nc2ccccc2c(=O)n1-c1ccccc1`, the outcome was active.

In the case of `CC1CCC(C(C)C)C(OC(=O)COC(=O)c2ccc(=O)[nH]c2)C1` (configuration not stated), the result was active.

Turning to `Cc1cccc(C)c1OC(=O)C(c1ccccc1)c1ccccc1`, the result was active.

Regarding `CCOC(=O)C(C)Sc1nc(-c2ccccc2)nc2ccccc12` (configuration not stated), the outcome was active.

`O=C(Nc1ccccc1Sc1ccccc1)c1ccc(F)cc1`: the outcome was active.

The experiment is the same for the next values; noted with them: EP2-expressing cells, PGE2 EC50 shift by compound; measured here: PGE2 EC50 at 6.7 uM compound.
For `CCn1nnc(-c2ccccc2NC(=O)c2cc(OC)cc(OC)c2)n1`, the PGE2 EC50 with compound is 0.95 nM.

`CCOC(=O)c1c(NC(=O)CSc2nnnn2CC)sc(C)c1C`: the PGE2 EC50 with compound worked out at 0.81 nM.

For the compound `CN(Cc1cc(Br)cc(Br)c1O)Cc1c(O)ccc2ccccc12`, the PGE2 EC50 with compound was determined as 1.22 nM.

Take `COc1cc2c(cc1OC)-c1cc(Nc3ccc4c(c3)OCCO4)nc(=O)n1CC2`: the PGE2 EC50 with compound turned out to be 2.5 nM.

For the compound `COC(=O)c1c(NC(=O)c2ccc(Br)s2)sc2c1CCC2`, the PGE2 EC50 with compound came out at 1.14 nM.

Turning to `Brc1cccc(-c2nnc(SCc3ccon3)n2-c2ccccc2)c1`, the PGE2 EC50 with compound stood at 1.06 nM.

`C=CCN1C(=O)/C(=C/c2ccc(O)c(OC)c2)S/C1=N/c1nccs1`: the PGE2 EC50 with compound is 1.27 nM.

`CCSc1ccccc1C(=O)Nc1ccc([N+](=O)[O-])cc1OC`: the PGE2 EC50 with compound came out at 1.06 nM.

`CCSc1ncnc2sc3c(c12)CCC3`: the PGE2 EC50 with compound is 0.94 nM.

With `Cc1noc(C)c1CSc1nc2ccccc2c(=O)n1-c1ccc(F)cc1F`, the PGE2 EC50 with compound stood at 1.09 nM.

For `COc1ccc(-n2c(COc3cccc4ccccc34)nnc2SCC(=O)NCc2ccco2)cc1`, the PGE2 EC50 with compound is 1.07 nM.

As to `COc1cccc(C2=NN(C(=O)c3cccs3)C(O)(C(F)(F)F)C2)c1` (configuration not stated), the PGE2 EC50 with compound turned out to be 1.44 nM.

For `CCOP(=O)(OCC)c1nc(-c2ccc(Cl)cc2Cl)oc1N1CCCCC1`, the PGE2 EC50 with compound was found to be 1.42 nM.

As for `Oc1c(Cl)cc(Cl)cc1Sc1cc(Cl)cc(Cl)c1O`, the PGE2 EC50 with compound came to 0.58 nM.

For the compound `CCC1Oc2ccccc2N(Cc2ccccc2C)C1=O` (configuration not stated), the PGE2 EC50 with compound came to 2.7 nM.

In the case of `O=c1c2oc3ccccc3c2[nH]c(=S)n1-c1ccccc1`, the PGE2 EC50 with compound amounted to 1.25 nM.

`CC1=CC(C)(C)N(C(=O)c2ccccc2)c2ccccc21`: the PGE2 EC50 with compound turned out to be 0.8 nM.

With `Cc1ccn2c(Nc3ccccc3C)c(-c3ccccn3)nc2c1`, the PGE2 EC50 with compound came out at 0.73 nM.

For the compound `N#Cc1c(-c2ccco2)nc(SCC(=O)Nc2cccc(Cl)c2)[nH]c1=O`, the PGE2 EC50 with compound came out at 1.15 nM.

With `COC(=O)c1sccc1NC(=O)c1cccc(OC)c1`, the PGE2 EC50 with compound stood at 1.42 nM.

Turning to `COc1ccc(C(=O)/C(=C/O)N=Nc2ccc(F)cc2)cc1`, the PGE2 EC50 with compound was found to be 1 nM.

Take `COc1cccc2[nH]c3c(N4CCC(C)CC4)ncnc3c12`: the PGE2 EC50 with compound was determined as 2.38 nM.

In the case of `COc1ccc(C(=O)c2cnc3ccccc3c2-c2ccccc2)cc1`, the PGE2 EC50 with compound came out at 0.59 nM.

For the compound `CCOc1ccc(C(C)=O)cc1CC(C(N)=O)C(N)=O`, the PGE2 EC50 with compound worked out at 1.11 nM.

Consider `S=c1[nH]cc(-c2ccccc2)n1-c1ccccc1`, for which the PGE2 EC50 with compound is 1.48 nM.

With `O=C(/C(=C/O)N=Nc1ccccc1)c1ccc(Cl)cc1`, the PGE2 EC50 with compound was determined as 1.12 nM.

On to `CC(=O)O[C@H]1CC[C@@]2(C)[C@@H](CC[C@H]3[C@H]2CC(=O)[C@]2(C)[C@@H]3C[C@H]3CC(C)=CC(=O)[C@@H]32)C1`, for which the PGE2 EC50 with compound is 1.34 nM.

On to `Cc1nc(N(C)C)c2sc(=S)n(Cc3ccccc3)c2n1`, for which the PGE2 EC50 with compound was 1.21 nM.

For the compound `CC(C)NC(=S)NN=C1CCCCCCCCCCC1`, the PGE2 EC50 with compound stood at 0.97 nM.

As to `Cc1ccc(C)n1-c1ccc(N(C)C)cc1`, the PGE2 EC50 with compound was 0.75 nM.

As for `Cc1ccc(C(=O)OCC(=O)Nc2ccccc2Sc2ccccc2)cc1C`, the PGE2 EC50 with compound turned out to be 0.85 nM.

For `COC(=O)NC1(C(F)(F)F)C(=O)NC(C)=C1C(=O)OC` (configuration not stated), the PGE2 EC50 with compound was 1.02 nM.

On to `Cc1noc(C)c1CSc1nc2ccccc2c(=O)n1-c1ccccc1`, for which the PGE2 EC50 with compound turned out to be 1.3 nM.

As for `COC(=O)CSc1nc(Cc2ccccc2)nc2ccccc12`, the PGE2 EC50 with compound was 2.72 nM.

Take `Fc1ccc(-c2cc(-c3ccccc3)nc(-n3cccn3)n2)cc1`: the PGE2 EC50 with compound was found to be 1.63 nM.

Turning to `CCOC(=O)c1ccccc1NC1c2ccccc2C(=O)N1c1cc(C)ccn1` (configuration not stated), the PGE2 EC50 with compound worked out at 1.13 nM.

On to `CCCCOC(=O)n1c(=S)oc2cc(Cl)ccc21`, for which the PGE2 EC50 with compound was 0.85 nM.

As to `CCN(Cc1cc(Cl)cc(C)c1O)Cc1c(O)ccc2ccccc12`, the PGE2 EC50 with compound stood at 0.84 nM.

Turning to `CC1CCC(C(C)C)C(OC(=O)COC(=O)c2ccc(=O)[nH]c2)C1` (configuration not stated), the PGE2 EC50 with compound was found to be 1.4 nM.

For the compound `Cc1cccc(C(=O)Nc2cccc(OCC(=O)O)c2)c1`, the PGE2 EC50 with compound was 6.72 nM.

Regarding `Cc1cccc(C)c1OC(=O)C(c1ccccc1)c1ccccc1`, the PGE2 EC50 with compound was 2.47 nM.

As to `COc1ccc(-c2nnc(N3CCC(C)CC3)c3ccccc23)cc1`, the PGE2 EC50 with compound turned out to be 1.15 nM.

As to `O=C(O)[C@@H]1[C@H](C(=O)O)[C@@H](C(=O)O)C[C@H]1C(=O)O`, the PGE2 EC50 with compound is 0.91 nM.

As to `CCOC(=O)c1c(NC(=O)CSc2nnc(C)s2)sc2c1CCC(C)C2` (configuration not stated), the PGE2 EC50 with compound came to 0.95 nM.

Take `CC1=CC2C(C(C)C)CCC(C)(O)C2CC1` (configuration not stated): the PGE2 EC50 with compound came to 0.68 nM.

In the case of `OCCCNc1nc(-c2ccc(Cl)cc2)nnc1-c1ccc(Br)cc1`, the PGE2 EC50 with compound was 1.11 nM.

As to `Cc1cnn(-c2nc(-c3ccccc3)cc(-c3ccccc3)n2)c1`, the PGE2 EC50 with compound was 0.95 nM.

For the compound `C=CCc1cccc(C=Nc2cc(Br)ccc2O)c1O`, the PGE2 EC50 with compound is 0.89 nM.

With `CC[C@H](C)C(=O)O[C@H]1C[C@@H](C)C=C2C=C[C@H](C)[C@H](CC[C@@H]3C[C@@H](O)CC(=O)O3)[C@H]21`, the PGE2 EC50 with compound was found to be 0.97 nM.

In the case of `Cc1cccc(NC(=O)CSc2ncnc3c2oc2ccccc23)c1`, the PGE2 EC50 with compound amounted to 2.85 nM.

Turning to `CCOC(=O)C(C)Sc1nc(-c2ccccc2)nc2ccccc12` (configuration not stated), the PGE2 EC50 with compound was 0.92 nM.

Consider `O=c1[nH]c(SCc2cccc(Cl)c2)nc2c1CCCC2`, for which the PGE2 EC50 with compound was determined as 0.77 nM.

In the case of `COc1ccc(OC(=O)c2cccc([N+](=O)[O-])c2)c(C(=O)/C=C/c2cccs2)c1`, the PGE2 EC50 with compound is 2.52 nM.

On to `Cc1cc(O)c(C=O)c2c1C(=O)Oc1c(C)c(O)c3c(c1O2)C(O)OC3=O` (configuration not stated), for which the PGE2 EC50 with compound came out at 0.76 nM.

As to `O=C1c2ccccc2OC2(C=Cc3ccccc3O2)N1Cc1ccccc1` (configuration not stated), the PGE2 EC50 with compound worked out at 0.31 nM.

For `CCc1ccc(OCc2n[nH]c(=S)n2C(C)CCCC(C)C)cc1` (configuration not stated), the PGE2 EC50 with compound was found to be 1.4 nM.

As for `CCOC(=O)c1c(NC(=O)c2ccoc2C)sc(C(=O)N(C)C)c1C`, the PGE2 EC50 with compound is 0.8 nM.

As for `O=C(Nc1ccccc1Sc1ccccc1)c1ccc(F)cc1`, the PGE2 EC50 with compound was 0.97 nM.

With `Cc1ccccc1-n1c(SCC(=O)N2CCCC2)nnc1-c1ccccn1`, the PGE2 EC50 with compound is 1.28 nM.

Consider `Cc1ccc(-c2csc(N(CC3CCCO3)C(=O)c3ccco3)n2)cc1` (configuration not stated), for which the PGE2 EC50 with compound stood at 0.87 nM.

With `O=C(c1ccco1)N(CC1CCCO1)c1nc(-c2ccccc2)cs1` (configuration not stated), the PGE2 EC50 with compound is 0.61 nM.

As for `Cc1ccc(-c2nnc(N3CCC(C)CC3)c3ccccc23)cc1`, the PGE2 EC50 with compound was 1.39 nM.

As for `Cc1ccc(-n2c(=S)[nH]c3c(oc4ccccc43)c2=O)cc1`, the PGE2 EC50 with compound stood at 2.77 nM.

Take `CCOC(=O)c1oc2ccccc2c1NC(=O)c1ccccc1OC`: the PGE2 EC50 with compound was 1.25 nM.

Regarding `Cc1sc(NC(=O)CN2CCOCC2)c(C(=O)c2ccccc2)c1C`, the PGE2 EC50 with compound was determined as 1.18 nM.

With `O=C(O)c1csc(N/N=C/c2ccc(Br)cc2)n1`, the PGE2 EC50 with compound was 0.89 nM.
